{
  "source": "paper PMC7016952",
  "about": "“Characterization of the Menin-MLL Interaction as Therapeutic Cancer Target” (Cancers, 2020)",
  "key": {"KYSE-150 xenograft": {"tested_on": "KYSE-150 xenograft", "assay": "KYSE-150 xenograft efficacy", "type": "in vivo, mice", "conditions": "120 mg/kg QD p.o.", "protocol": "(§1) Tumor cells were injected subcutaneously into the flanks of 6- to 9-week old animals. Efficacy studies in xenograft models were performed at Bayer or EPO GmbH (Berlin-Buch, Germany) using NMRI nu/nu, SCID, BALB/c Nude female mice or SCID male mice (VCaP tumors). All animal studies were conducted in accordance with the animal welfare laws and were approved by the State Office for Health and Social Affairs Berlin (LAGeSo). Experiments were run under the animal license B3600a0007. Compound treatment started at a predefined tumor size or burden or at a predefined day after cell inoculation. BAY-155 was administered orally (p.o.) at various doses and regorafenib, tamoxifen and enzalutamide (resuspended in PEG400/H2O 6/4 or PEG400/EtOH 9/1) were used as control treatment for RKO, MCF7 and VCaP xenografts, respectively. Subcutaneous tumor volumes were determined by caliper measurement."}, "CYP enzymes": {"tested_on": "CYP enzymes", "conditions": "cited from earlier work"}, "CYP 1A2": {"target": "CYP 1A2 (Homo sapiens, UniProt P05177)", "sequence (P05177 whole entry)": "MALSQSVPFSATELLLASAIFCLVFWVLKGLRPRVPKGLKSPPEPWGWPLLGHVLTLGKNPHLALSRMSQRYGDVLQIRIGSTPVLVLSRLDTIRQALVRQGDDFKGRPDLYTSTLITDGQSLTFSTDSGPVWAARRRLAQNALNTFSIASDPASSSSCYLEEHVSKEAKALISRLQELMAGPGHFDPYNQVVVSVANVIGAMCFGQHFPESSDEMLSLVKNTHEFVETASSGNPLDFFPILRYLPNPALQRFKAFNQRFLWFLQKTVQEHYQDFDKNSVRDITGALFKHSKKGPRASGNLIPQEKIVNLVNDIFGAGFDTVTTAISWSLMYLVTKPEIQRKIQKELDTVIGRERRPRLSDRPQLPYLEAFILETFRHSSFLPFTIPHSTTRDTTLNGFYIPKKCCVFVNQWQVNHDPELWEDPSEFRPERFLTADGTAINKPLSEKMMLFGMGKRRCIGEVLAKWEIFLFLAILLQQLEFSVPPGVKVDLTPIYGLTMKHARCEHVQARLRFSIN", "conditions": "cited from earlier work"}, "[1]": {"conditions": "cited from earlier work"}, "VCaP cells": {"tested_on": "VCaP cells", "assay": "RNA-seq after R1881 stimulation, VCaP", "type": "cell-based, human", "protocol": "(§2) Total RNA was isolated using RNeasy-Plus Mini kit (Qiagen, Hilden, Germany). RNA (1 μg) was reverse transcribed using SuperScript III First-Strand Synthesis SuperMix (Life Technologies) and the generated cDNA was analyzed with commercial primers (Supplementary Materials Table S1) by qRT-PCR using TaqMan Fast Advanced Master Mix (Life Technologies). For the RNA-seq study, ZR-75-1, BT474, PANC-1, MiaPaCa-2, 22RV1, JMSU-1, DLD-1, SW1463, LoVo and G401 cells were treated with 5 µM BAY-155 or DMSO for 48 h prior to RNA extraction. After 48 h of 5 µM BAY-155 or DMSO treatment, MCF7, VCaP and LNCaP cells were stimulated for further 12 h with 0.1 nM of E2 (ß-Estradiol) or 1 nM R1881, respectively. MCF7, VCaP and LNCaP cells were cultured in starvation medium (containing 5 µM BAY-155 or DMSO) 6 h before stimulation. RNA was isolated using RNeasy-Plus Mini kit (Qiagen). The purified RNA was used for library preparation (Illumina, San Diego, CA, USA. TruSeq Stranded mRNA Kit) and the generated libraries were sequenced (Illumina, HiSeq2500 HTv4, SR, dual-indexing, 50 cycles).\nRNA-seq reads were aligned to hg38 using STAR aligner. Protein-coding genes with more than 10 reads in more than three samples were used for the analysis (total samples N = 86; genes N = 13,003). DESeq2 was used to find genes differentially expressed upon treatment by the menin inhibitor in each cell line compared to DMSO or hormonal treatment (for MCF-7, LNCaP and VCaP cell lines). […] GSEA analysis was run on the pre-ranked list based on logFC in prostate (VCaP and LNCaP) and breast (MCF7) cell lines. Data are available at GEO under accession number GSE136272."}, "MCF7 xenograft": {"tested_on": "MCF7 xenograft", "assay": "MCF7 xenograft efficacy", "type": "in vivo, mice", "protocol": "as §1"}, "[2]": {"conditions": "cited from earlier work", "remark": "listed apart in the source"}, "[3]": {"conditions": "cited from earlier work", "remark": "listed apart in the source"}, "[4]": {"tested_on": "AR signaling pathway genes in VCaP tumor samples", "assay": "Ex vivo gene expression in VCaP xenografts", "set-up": "species or system mice", "conditions": "52 days of treatment", "protocol": "as §2\nTumors were harvested, dissociated and total RNA was extracted using the TissueLyser (Qiagen, Hilden, Germany) together with RNeasy-Plus Mini kit according to the manufacturer protocol."}},
  "data": [
    {"smiles": "Cc1c(CN2CCC3(CC2)CN(c2ncnc4sc(CC(F)(F)F)cc24)C3)ccc2c1cc(C#N)n2CC(N)=O", "note": "[BAY-155]", "values": [
      {"measurement": "tumor volume T/C", "setting": "KYSE-150 xenograft", "result": 0.67},
      {"measurement": "tumor weight", "setting": "KYSE-150 xenograft", "result": "significant decrease in tumor weight"},
      {"measurement": "inhibition of CYP enzymes (in words)", "setting": "CYP enzymes", "result": "no inhibition"},
      {"measurement": "IC50", "setting": "CYP 1A2", "result": "> 20", "unit": "µM"},
      {"measurement": "CLblood (metabolic stability in rat hepatocytes, as worded in text)", "setting": "[1]", "result": 18.3, "unit": "mL/min/kg"},
      {"measurement": "GSEA of androgen-regulated gene sets", "setting": "VCaP cells", "result": "significant reversal of androgen-induced gene expression changes"},
      {"measurement": "genes down-regulated by androgen stimulation that were elevated", "setting": "VCaP cells; 5 µM, R1881", "result": 182, "unit": "genes"},
      {"measurement": "genes up-regulated by androgen stimulation that were repressed", "setting": "VCaP cells; 5 µM, R1881", "result": 36, "unit": "genes"},
      {"measurement": "tumor volume and tumor weight", "setting": "MCF7 xenograft", "result": "no significant effects"},
      {"measurement": "in vivo CL blood Rat", "setting": "[2]", "result": 18.3, "unit": "mL/min/kg"},
      {"measurement": "in vivo F Rat", "setting": "[2]", "result": 15.3, "unit": "%"},
      {"measurement": "Caco2 permeability Papp(A-B)", "setting": "[3]; Caco-2, pH 7.2", "result": 2.64, "unit": "×10⁻⁶ cm/s"},
      {"measurement": "Caco2 permeability efflux ratio", "setting": "[3]; Caco-2", "result": 6.4},
      {"measurement": "FKBP5 and TMPRSS2 expression ex vivo", "setting": "[4]", "result": "no significant changes"}
    ]}
  ]
}
